Data on 5 compounds can be found in patent publication US11147820B2, “Methods for treating GI tract disorders” (Neurogastrx, Inc., priority 2012, dated 2021).

The subject of data set [1] is cardiac action potentials. Description: Canine cardiac action potentials by electrocardiography and telemetry. The class given is in vivo. The settings on record: dogs, oral gavage, post-dose period 1-6 hours, vs vehicle. The source says: Anesthesia is introduced to dogs. Balanced gaseous anesthesia is used throughout the surgical procedure. Once anesthetized, animals are shaved and surgically scrubbed, encompassing surgical sites of the right inguinal area, chest and right lateral abdomen. Throughout the surgical procedure, animals are monitored for continuous assessment of vital signs. An incision is made along the right medial thigh and the femoral artery exposed by blunt dissection. Another incision is made in the lateral lumbar area cranial to the iliac crest for a tunneling needle to be passed subcutaneously from the incision on the medial thigh to the lumbar incision. A blood pressure catheter is passed through the needle from the lumbar incision and the needle removed. The femoral artery is ligated distally and incised to insert a catheter that is advanced until the tip resided in the femoral artery/abdominal aorta. The catheter is then secured by ligation. The incision in the lumbar area is enlarged and a subcutaneous pocket created in the left dorsal lumbar area to hold the transmitter body. The transmitter (e.g., Data Sciences International, St Paul, Minn., USA) is inserted into the subcutaneous pocket and secured body. Electrocardiography (ECG) leads are positioned. The incision is closed. Postoperative recovery lasts, e.g., about 2 weeks during which supplemental analgesics/antibiotics are administered as needed. Once the postoperative recovery period is complete, the animal is examined for study acceptability by the staff veterinarian and the implanted transmitter signal verified. […] ECGs, heart rate and arterial blood pressure data are recorded 1 hour prior to and then continuously for at least 6 hours following compound and/or vehicle administration. A blood sample for determination of compound plasma concentrations is collected from all subjects at approximately 6 h post-dose. […] Standard ECG intervals (PR, RR, QRS and QT) are automatically measured by the data acquisition system and reported as, e.g., 10 min averages. […] Dose-level averages (and accompanying standard deviation (s.d.) of these baseline-adjusted 10 min averages are calculated across study animals. ANOVA (e.g., repeated measures ANOVA) are applied to these baseline-adjusted averages. Pairwise t-tests are applied within the ANOVA to identify the presence of significant differences of the dose levels relative to vehicle. These t-tests are performed at a 0.05/2=0.025 significance level, so that the overall error rate across the comparisons in a given interval are not higher than 0.05. ECG interval data (reported at 30 min intervals) are analyzed using, e.g., repeated-measures ANOVA techniques similar to the systemic blood pressure and heart rate data described above.

The test system of the next data set is gastric emptying. Description: Gastric emptying in rodents, metopimazine. The class given is in vivo. Particulars: preliminary.
The subject of another data set is gastric motility. The data set can be described thus: Antral manometry in canines (gastric motility). Type of data set: in vivo. The settings on record: for motor dysfunction: canines. The procedure: Two healthy female hound dogs (24-28 kg) were involved in this study. Animals were fed an ad libitum chow diet (LabDiet®). After an overnight fast, the dogs were anesthetized with Pentothal (sodium thiopental, 11 mg/kg IV; Abbott Laboratories, North Chicago, Ill.) and maintained on 2-4% isoflurane (Abbott Laboratories) in oxygen (1 L/min) carrier gases delivered from a ventilator after endotracheal intubation. A cannula was placed in the jejunum 20 cm distal to the pylorus for the assessment of antral motility. Dogs were allowed to recover in their individual cages for 2 weeks. All experiments were performed after the dogs were completed recovered from the surgical procedure. The study was performed according to the National Institutes of Health Guidelines on the use of laboratory animals and approved by the Animal Care and Use Committee of the University of Texas Medical Branch at Galveston, Tex. To investigate the effect of the drugs on antral manometry, the study of each drug dose was done on three randomized sessions on separate days following the consumption of one can of solid dog food: 1) a Control session: In which animals received the vehicle only; 2) Dose I session: in which the lower dose of the drug was used; and 3) Dose II session: in which the higher dose of the drug was used (please refer to table for drug doses). Drug administration was performed according to Table 4, below. [table] Antral manometry was performed as follows. Following an overnight fast, an intraluminal water-perfused manometry catheter was inserted into the antrum through the jejunal cannula. Antral manometry recording was initiated after the consumption of one can of solid food and continued for 3 hours. The catheter contained 3 manometric sensors at a 1 cm interval. Dogs were given 10 minutes of accommodation, prior to the start of the recording. For data analysis, motility index (MI), defined as the integrated area (area under curve—AUC) between baseline and contractions per hour, was calculated. For statistical analysis, the Student's t-test was used for assessment of individual differences between groups (High dose, low dose of each drug) compared to control—Microsoft® Excel 2002). All values are expressed as mean±SEM.

The subject of another data set is solid gastric emptying. Description: Solid gastric emptying in rats, S-carbidopa. Type of data set: in vivo, Sprague-Dawley rats. The settings on record: 1 mg/kg, initial results. The procedure: Male Sprague-Dawley rats, purchased from the Charles River Lab, were housed in the animal facility of Veterans Research Education Foundation, which was maintained at 22˜24° C., 55% relative humidity, with an automatic 12 h light/dark cycle. The animals received a standard laboratory rat chow and tap water ad libitum. The rats were around 400 g at 14 weeks age when used in gastric emptying study.
S-Carbidopa was purchased from Sigma (#: C1335). Stock solution of S-Carbidopa was prepared at 5 mg/ml using DMSO as solvent. 80 μl stock solution was further diluted into 1 ml distilled water to make 0.4 mg/ml. The effect of S-Carbidopa (1 mg/kg) on solid gastric emptying was studied.
Male SD rats were involved in this study. Rats were fasted in cages with metal wired mesh for 24 hours with free access to water; S-carbidopa (1 mg/kg) was administered to the rats by oral gavage. Control rats were not administered S-carbidopa. 15 minutes following administration, rats were given access to 2 g of rat chow pellets for ten minutes. All rats completely ingested the chow within the 10 minute time frame. Rats were sacrificed by sodium pentobarbital (100 mg/kg) overdose 90 min after feeding. […] Solid gastric emptying was calculated according to the following formula: Gastric emptying (%)=[1−(dried gastric content in g)/2 g]×100. All values are expressed as mean±SEM. […]

The structures appear in SMILES notation.

`CS(=O)(=O)c1ccc2c(c1)N(CCCN1CCC(C(=O)O)CC1)c1ccccc1S2` [Metopimazine acid]: the QTc intervals result in data set [1] is “no significant increases”. The peripheral restriction entry in “Peripheral restriction” is recorded as “peripherally restricted agents”.
Consider `CS(=O)(=O)c1ccc2c(c1)N(CCCN1CCC(C(N)=O)CC1)c1ccccc1S2` [Metopimazine, 1-[3-[2-(methylsulfonyl)-10H-phenothiazin-10-yl]propyl]-piperidine-4-carboxamide], for which the QTc intervals entry in data set [1] was “no significant increases”. Besides, the peripheral restriction entry in “Peripheral restriction” is “peripherally restricted agents”. Further, the “increase in gastric emptying as compared to vehicle control” value with gastric emptying (3 mg/kg) is “about 40%”. Moreover, the “increase in gastric emptying as compared to vehicle control, overall effect” value in the data set with gastric emptying (pooling the 3 mg/kg and 10 mg/kg doses) was “about 20%”. Besides, in the data set on gastric motility, the motor dysfunction result is reported as “no motor dysfunction was observed”.
Turning to `Cl.NCCc1ccc(O)c(O)c1` [dopamine hydrochloride], the “motility index (MI)” value with gastric motility (50 mg/canine IV, immediately before meal, all channels, p=0.06) was “decreased MI”.
Regarding `C[C@@](Cc1ccc(O)c(O)c1)(NN)C(=O)O` [S-Carbidopa, (2S)-3-(3,4-dihydroxyphenyl)-2-hydrazino-2-methylpropanoic acid], the “solid gastric emptying compared to control rats” value in the data set on solid gastric emptying was “improves solid gastric emptying”. Also, the QTc intervals entry in data set [1] is listed as “no significant increases”. In addition, the “motility index (MI)” value in the data set on gastric motility (1 mg/kg IV, 15 min prior to meal, all three channels, p=0.05) was “robustly increased MI”. For the same compound, in the data set on gastric motility, the motor dysfunction result is on record as “no motor dysfunction was observed”.
For the compound `CN(CCOc1ccc(NS(C)(=O)=O)cc1)CCc1ccc(NS(C)(=O)=O)cc1` [dofetilide], the QTc intervals result in data set [1] was “increased”.
